Source: patent US20110117627A1, “REGULATION OF APOPTOSIS BY NEURAL SPECIFIC SPLICE VARIANTS OF IG20” (The Board of Trustees of the University of Illinois, priority 2008, published 2011)
“Also recorded” adds a separate entry of the source. Where a SMILES comes first, the peptide text is derived from it. The star is where a group is joined. Cbz = O=C(OCc1ccccc1)*; CH2F = FC*

What was measured:
Assay type in all cases: cell-based, human
SK-N-SH cells = assay: Caspase-8 inhibition, apoptosis by Annexin V-PE/7-AAD; details: 40 μM and 80 μM for two days
Protocol: FIG. 6. Down modulation of KIAA0358 or selective expression of IG20-SV4 enhances apoptosis through expression/activation of caspase-8 in SK-N-SH cells. (A) Effects of cycloheximide on expression/activation of caspase-8. Three days post-transduction with shRNA-expressing virus, SK-N-SH cells were treated with 10 μg/ml cycloheximde (a protein synthesis inhibitor) for two days. Whole cell lysates were subjected to western blot analysis. (B) Caspase-8 reporter assay. SK-N-SH cells were cotransfected with pGL4.17-caspase-8 promoter vector, pSV40-Renilla luciferase vector and pEYFP-C1/or pEYFP-IG20-SV4 using Lipofectamine2000, 48 hrs later, cells were collected and analyzed for luciferase activity with the Dual-Luciferase Reporter Assay System (Promega). (C) and (D) Effects of caspase-8 inhibition. Three days post-transduction with shRNA-expressing virus, SK-N-SH cells were treated with 40 μM and 80 μM of Z-1ETD-FMK (a caspase 8 inhibitor) for two days. Collected cells were either subjected to Annexin V-PE/7-AAD stain for FACS analysis (C) or western blot analysis (D). (C) Percentage apoptosis in cells transduced with different shRNAs in the presence or absence of the caspase inhibitor. The P-value was **P<0.01 for Z-IETD-FMK treated vs untreated. […] Representative data are from three independent experiments.
Caspase-8 inhibition. […]

caspase-8 [1] = assay: Caspase-8 inhibition, western blot; details: SK-N-SH cells, 40 μM and 80 μM
Protocol: (§1) FIG. 6. Down modulation of KIAA0358 or selective expression of IG20-SV4 enhances apoptosis through expression/activation of caspase-8 in SK-N-SH cells. (A) Effects of cycloheximide on expression/activation of caspase-8. Three days post-transduction with shRNA-expressing virus, SK-N-SH cells were treated with 10 μg/ml cycloheximde (a protein synthesis inhibitor) for two days. Whole cell lysates were subjected to western blot analysis. (B) Caspase-8 reporter assay. SK-N-SH cells were cotransfected with pGL4.17-caspase-8 promoter vector, pSV40-Renilla luciferase vector and pEYFP-C1/or pEYFP-IG20-SV4 using Lipofectamine2000, 48 hrs later, cells were collected and analyzed for luciferase activity with the Dual-Luciferase Reporter Assay System (Promega). (C) and (D) Effects of caspase-8 inhibition. Three days post-transduction with shRNA-expressing virus, SK-N-SH cells were treated with 40 μM and 80 μM of Z-1ETD-FMK (a caspase 8 inhibitor) for two days. […]
(§2) Western Blot Analysis. […] The protein content was determined using a dye-binding microassay (Bio-Rad), and after boiling the samples for 2 min in a 1× SDS protein sample buffer, 20 μg of protein per lane was loaded and separated on 10% SDS-polyacrylamide gel. […] Proteins were detected using an enhanced chemiluminescence plus western blotting detection system (Amersham, UK). […]

caspase-8 [2] = assay: Cycloheximide treatment of transduced SK-N-SH cells, western blot of caspase-8; details: 10 μg/mL cycloheximide
Protocol: as §1, with “(Promega).” for “(Promega). (C) and (D) Effects of caspase-8 inhibition. Three days post-transduction with shRNA-expressing virus, SK-N-SH cells were treated with 40 μM and 80 μM of Z-1ETD-FMK (a caspase 8 inhibitor) for two days.”
To determine whether the increased apoptosis induced utilizing 34+13L shRNA was due to modulation of the expression of caspase-8, the expression of caspase-8 transcripts was measured in SK-N-SH cells treated with the different combinations of siRNAs. […]
as §2

SMILES	apoptosis in cells treated with shRNA targeting 34E (SK-N-SH cells)	apoptotic effect caused by down-modulation of KIAA0358 (SK-N-SH cells)	effect on caspase-8 expression (western blot) (caspase-8 [1])	expression of caspase-8 protein (caspase-8 [2])
CC[C@H](C)[C@H](NC(=O)OCc1ccccc1)C(=O)N[C@@H](CCC(=O)OC)C(=O)N[C@H](C(=O)N[C@@H](CC(=O)OC)C(=O)CF)[C@@H](C)O [Z-IETD-FMK] (Cbz-IE(OMe)TD(OMe)-CH2F)	did not significantly affect apoptosis	significantly attenuated the apoptotic effect	inhibitory effect	
C[C@@H]1C[C@@H]([C@H](O)CC2CC(=O)NC(=O)C2)C(=O)[C@@H](C)C1 [cycloheximide]				inhibited the expression of caspase-8 protein; also recorded: the induced caspase-8 was inhibited
